According to patent US20160220569A1, “CDK4/6 Inhibitor Dosage Formulations For The Protection Of Hematopoietic Stem And Progenitor Cells During Chemotherapy” (G1 Therapeutics, Inc., priority 2015, published 2016):

What was measured:
[1] = PK comparison of Compound 1 clinical data with literature PK of palbociclib; type: in vivo, human
CDK4/6 = CDK4/6 inhibition in vitro and in vivo studies
[2] = human, plasma, 96 mg/m2, 96 mg/m^2 IV

Question: With `CN1CCN(c2ccc(Nc3ncc4cc5n(c4n3)C3(CCCCC3)CNC5=O)nc2)CC1` [Compound 1, 2′-((5-(4-methylpiperazin-1-yl)pyridin-2-yl)amino)-7′,8′-dihydro-6′H-spiro[cyclohexane-1,9′-pyrazino[1′,2′:1,5]pyrrolo[2,3-d]pyrimidin]-6′-one] as the compound, how does the CL/F ([1]; 96 mg/m^2 IV) read?
Answer: 121 L/h

Question: And the “accumulation in blood plasma on consecutive days” value ([1]; Compound 1)?
Answer: does not show accumulation

Question: What about the CL/F ([1]; […]^2 IV) of the same compound?
Answer: 126 L/h

Question: What about the AUC(0-inf) [1, 2] of the same compound?
Answer: 1380 ng·h/mL

Question: What about the Cmax [1, 2] of the same compound?
Answer: 932 ng/mL

Question: And the half-life [1, 2]?
Answer: 8.6 h

Question: And the half-life ([1]; human, plasma, iv, […]2)?
Answer: 7.9 h

Question: What about the CDK4/6 inhibitor characterisation (CDK4/6) of the same compound?
Answer: highly potent and selective CDK4/6 inhibitor
